Patent publication US6815546B2, “Analogues of camptothecin, their use as medicaments and the pharmaceutical compositions containing them” (Societe de Recherches et d'Applications Scientifiques …, priority 1995, dated 2004)

What was measured:
Assay type in all cases: cell-based
[1] = test system: LOVO (cell lines of human colon adenocarcinoma); assay: Test on cell proliferation (MTT test), LOVO; conditions: 72 hours
Description: (§1) a. Eight tumoral cell lines are used in this study: L1210 (mouse lymphocytic leukemia), HCT15 and LOVO (cell lines of human colon adenocarcinoma), A549 (human lung carcinoma), A172, U373 et U87 (human glioblastoma). All these lines are obtained from the American Type Culture Collection (ATCC), Rockville, Md. The L1210 cell cultures in suspension are cultured in Dulbecco's modified Eagle's medium (DMEM) (BioWhitaker, Verviers, Belgium) together with 10% of foetal calf serum inactivated by heating, 2 mM of glutamine, 50 μg/ml of penicillin and 50 μg/ml of streptomycin. The HT29 cells are cultured in mono-layer cultures in a McCoy 5a medium (Gibco, Paisley, United Kingdom) together with 10% of foetal calf serum inactivated by heat plus 2 mM of glutamine and 50 μg/ml of gentamycin. The other cells are cultured in an Earle's modified essential medium (EMEM; Gibco, Paisley, United Kingdom) together with 5% foetal calf serum inactivated by heat, 2 mM of glutamine, 50 U/ml of penicillin and 50 μg/ml of streptomycin. All the cell lines are cultured at 37° C. in a humidified atmosphere containing 95% air and 5% CO2.
(§2) Inhibition of the tumor cell line proliferation is determined using an MTT test. 1500 L1210 cells in a culture medium (according to the needs of the cell medium) are seeded in a well of a micro-well plate (tissue culture level: 96 wells, flat bottom) 24 hours before treatment with the compounds to be tested. For these dose-response studies, the cells are incubated with each of the compounds to be tested or their corresponding solvent (controls) for 48 hours over a final concentration range of 1.10^−10 to 1.10^−4 M. All the compounds are dissolved just before use in dimethylsulphoxide (DMSO) at a concentration of 50 mM. Other dilutions of the medicaments are carried out in the culture medium. The final concentration of DMSO never exceeds 0.2% (v/v). As controls, the solutions of medicaments are replaced with the solvent which is diluted successively in the same way as the compounds to be tested.
(§3) After the incubation period, the labeling reagent MTT (3-[4,5-dimethylthiazol-2-yl]-2,5-diphenyltetrazolium bromide; Thiazol blue, Sigma M 565, Sigma, St Louis, Mo.) is added at a final concentration of 0.3 mg/ml to each well. The cells are incubated for 4 hours at 37° C. in a humidified atmosphere. This stage allows the mitochondrial dehydrogenase of the living cells to convert the yellow tetrazolium salt MTT into crimson formazan crystals. The supernatant part is eliminated and the formazan crystals formed are solubilized with DMSO. The resultant coloured solution is quantified by absorbance at 570 nm by using a multi-cuvette scanning spectrophotometer. The data concerning the proliferation is expressed as a percentage of living cells in the treated wells, divided by the living cells in the controls. Each point represents the average of three independent experiments, each experiment represents six determinations.
(§4) For the other cell lines (HCT15, LOVO, A549, A172, U373, U87), 1000 to 2000 cells are seeded in the well of a micro-well plate 24 hours before medicinal treatment. […]
(§5) The results are expressed as percentages of the calculated proliferation by the optical density (OD) of the cells treated with a medicament divided by the OD of the control cells (cells treated with DMSO). As represented in Table II, the compounds to be tested have inhibited the proliferation of cells in a dose-dependent manner.

[2] = test system: U373 (human glioblastoma); assay: Test on cell proliferation (MTT test), U373; conditions: 72 hours
Description: as §1, §2, §3, §4, §5

[3] = test system: A172 (human glioblastoma); assay: Test on cell proliferation (MTT test), A172; conditions: 72 hours
Description: as §1, §2, §3, §4, §5

[4] = test system: L1210 (mouse lymphocytic leukemia); assay: Test on cell proliferation (MTT test), L1210; conditions: 48 hours
Description: as §1, §2, §3, §5

[5] = test system: HCT15 (cell lines of human colon adenocarcinoma); assay: Test on cell proliferation (MTT test), HCT15; conditions: 72 hours
Description: as §1, §2, §3, §4, §5

SMILES | PERCENTAGE OF CELL PROLIFERATION ([1]; 0.1 nM) [%] | PERCENTAGE OF CELL PROLIFERATION ([1]; 1 nM) [%] | PERCENTAGE OF CELL PROLIFERATION ([1]; 10 nM) [%] | PERCENTAGE OF CELL PROLIFERATION ([1]; 100 nM) [%] | PERCENTAGE OF CELL PROLIFERATION ([1]; 1 000 nM) [%] | PERCENTAGE OF CELL PROLIFERATION ([1]; 10 000 nM) [%] | PERCENTAGE OF CELL PROLIFERATION ([1]; 100 000 nM) [%] | PERCENTAGE OF CELL PROLIFERATION ([2]; 0.1 nM) [%] | PERCENTAGE OF CELL PROLIFERATION ([2]; 1 nM) [%] | PERCENTAGE OF CELL PROLIFERATION ([2]; 10 nM) [%] | PERCENTAGE OF CELL PROLIFERATION ([2]; 100 nM) [%] | PERCENTAGE OF CELL PROLIFERATION ([2]; 1 000 nM) [%] | PERCENTAGE OF CELL PROLIFERATION ([2]; 10 000 nM) [%] | PERCENTAGE OF CELL PROLIFERATION ([2]; 100 000 nM) [%] | PERCENTAGE OF CELL PROLIFERATION ([3]; 0.1 nM) [%] | PERCENTAGE OF CELL PROLIFERATION ([3]; 1 nM) [%] | PERCENTAGE OF CELL PROLIFERATION ([3]; 10 nM) [%] | PERCENTAGE OF CELL PROLIFERATION ([3]; 100 nM) [%] | PERCENTAGE OF CELL PROLIFERATION ([3]; 1 000 nM) [%] | PERCENTAGE OF CELL PROLIFERATION ([3]; 10 000 nM) [%] | further results
CCC1(O)CC(=O)OCc2c1cc1n(c2=O)Cc2cc3ccccc3nc2-1 (stereo not shown) [Example 3, 5-ethyl-5-hydroxy-1,4,5,13-tetrahydro-3H,15H-oxepino [3′,4′:6,7]indolizino[1,2-b]quinoline-3,15-dione] | 108.00 | 86.00 | 54.00 | 31.00 | 23.00 | 10.00 | 12.00 | 99.00 | 98.00 | 40.00 | 24.00 | 17.00 | 13.00 | 9.00 | 89.00 | 101.00 | 68.00 | 37.00 | 27.00 | 10.00 | PERCENTAGE OF CELL PROLIFERATION ([3]; 100 000 nM): 7.00%; PERCENTAGE OF CELL PROLIFERATION ([4]; 0.1 nM): 87.22%; PERCENTAGE OF CELL PROLIFERATION ([4]; 1 nM): 68.92%; PERCENTAGE OF CELL PROLIFERATION ([4]; 10 nM): 42.64%; PERCENTAGE OF CELL PROLIFERATION ([4]; 100 nM): 26.85%; PERCENTAGE OF CELL PROLIFERATION ([4]; 1 000 nM): 10.83%; PERCENTAGE OF CELL PROLIFERATION ([4]; 10 000 nM): 2.11%; PERCENTAGE OF CELL PROLIFERATION ([4]; 100 000 nM): 2.20%; PERCENTAGE OF CELL PROLIFERATION ([5]; 0.1 nM): 86.00%; PERCENTAGE OF CELL PROLIFERATION ([5]; 1 nM): 84.00%; PERCENTAGE OF CELL PROLIFERATION ([5]; 10 nM): 58.00%; PERCENTAGE OF CELL PROLIFERATION ([5]; 100 nM): 44.00%; PERCENTAGE OF CELL PROLIFERATION ([5]; 1 000 nM): 18.00%; PERCENTAGE OF CELL PROLIFERATION ([5]; 10 000 nM): 9.00%; PERCENTAGE OF CELL PROLIFERATION ([5]; 100 000 nM): 13.00%
CCC1(O)CC(=O)OCc2c1cc1n(c2=O)Cc2cc3cc4c(cc3nc2-1)OCCO4 (stereo not shown) [Example 11, 8-ethyl-8-hydroxy-2,3,8,9,12,15-hexahydro-10H,13H-[1,4]dioxino [2,3-g]oxepino[3′,4′:6,7]indolizino[1,2-b]quinoline-10,13-dione] | 66.00 | 42.00 | 29.00 | 21.00 | 8.00 | 3.00 | 3.00 | 50.00 | 30.00 | 25.00 | 8.00 | 2.00 | 1.00 | 2.00 | 95.00 | 53.00 | 47.00 | 39.00 | 12.00 | 3.00 | PERCENTAGE OF CELL PROLIFERATION ([3]; 100 000 nM): 2.00%; PERCENTAGE OF CELL PROLIFERATION ([4]; 0.1 nM): 91.99%; PERCENTAGE OF CELL PROLIFERATION ([4]; 1 nM): 81.37%; PERCENTAGE OF CELL PROLIFERATION ([4]; 10 nM): 23.16%; PERCENTAGE OF CELL PROLIFERATION ([4]; 100 nM): 16.83%; PERCENTAGE OF CELL PROLIFERATION ([4]; 1 000 nM): 5.59%; PERCENTAGE OF CELL PROLIFERATION ([4]; 10 000 nM): 1.45%; PERCENTAGE OF CELL PROLIFERATION ([4]; 100 000 nM): 1.04%; PERCENTAGE OF CELL PROLIFERATION ([5]; 0.1 nM): 71.00%; PERCENTAGE OF CELL PROLIFERATION ([5]; 1 nM): 63.00%; PERCENTAGE OF CELL PROLIFERATION ([5]; 10 nM): 45.00%; PERCENTAGE OF CELL PROLIFERATION ([5]; 100 nM): 23.00%; PERCENTAGE OF CELL PROLIFERATION ([5]; 1 000 nM): 12.00%; PERCENTAGE OF CELL PROLIFERATION ([5]; 10 000 nM): 9.00%; PERCENTAGE OF CELL PROLIFERATION ([5]; 100 000 nM): 9.00%
